The numbers were not newly measured in patent publication US20100022576A1 (priority 2006, published 2010), which cites them from elsewhere.

Data set [1] concerns human mast cells. To be noted: in vitro.
For data set [2] the following is noted: in vivo.

Consider `Clc1ccc2c(c1)CCc1cccnc1C2=C1CCNCC1` [desloratadine], for which the “Release of histamine from human mast cells” value in data set [1] is “inhibits release of histamine from human mast cells”. In data set [2], the “Effect of food and grapefruit juice on bioavailability” value was “Neither food nor grapefruit juice has an effect”.
